Results from patent US10124004B2, “Pyrido[3,4-d]pyrimidine derivative and pharmaceutically acceptable salt thereof” (Teijin Pharma Limited, priority 2015, dated 2018).
Read-outs that look alike come from different tables or passages of the source.

Assays:
CDK4/cyclin D3 = biological target: T1, CDK4/cyclin D3 (Homo sapiens, UniProt P11802); assay: Human CDK4/cyclin D3 inhibitory activity (QS S Assist CDK4/Cyclin D3_FP Kit, IMAP fluorescence polarization); type: biochemical
T1 construct: purchased Carna Biosciences, Inc. QS S Assist CDK4/Cyclin D3_FP Kit
Summary of the method: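 IMAP fluorescence-polarization kinase assay with kit ATP/substrate/metal mix and 12.5 to 25 ng/well enzyme in 20 mM HEPES pH 7.4, 0.01% Tween20, 2 mM DTT. Reaction ran 45 min at room temperature, then binding reagent was added for 30 min in the dark. IC50 was taken from dose-response fits of percent inhibition.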

CDK2/cyclin A2 = biological target: T2, CDK2/cyclin A2 (Homo sapiens, UniProt P24941); assay: Human CDK2/cyclin A2 inhibitory activity (QS S Assist CDK2/Cyclin A2_FP Kit, IMAP fluorescence polarization); type: biochemical
T2 construct: purchased Carna Biosciences, Inc. QS S Assist CDK2/Cyclin A2_FP Kit
Summary of the method: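 Kinase activity read as fluorescence polarization (485/535 nm) after phosphorylated fluorescent substrate binds IMAP reagent (30 min, RT, dark). Enzyme (2.5 ng/well) reacted 60 min at RT with ATP/substrate/metal in HEPES pH 7.4 buffer with Tween 20 and DTT; no-enzyme wells define 0% activity; IC50 by curve fit.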

[1] = Human CDK4/cyclin D3 inhibitory activity, read-out: CDK4 Activity symbol
[2] = Human CDK2/cyclin A2 inhibitory activity, read-out: CDK2 Activity symbol
[3] = 50% inhibitory concentration against CDK4/cyclin D3, given as class symbol
[4] = 50% inhibitory concentration against CDK2/cyclin A2, given as class symbol

T1 sequence (P11802 whole entry): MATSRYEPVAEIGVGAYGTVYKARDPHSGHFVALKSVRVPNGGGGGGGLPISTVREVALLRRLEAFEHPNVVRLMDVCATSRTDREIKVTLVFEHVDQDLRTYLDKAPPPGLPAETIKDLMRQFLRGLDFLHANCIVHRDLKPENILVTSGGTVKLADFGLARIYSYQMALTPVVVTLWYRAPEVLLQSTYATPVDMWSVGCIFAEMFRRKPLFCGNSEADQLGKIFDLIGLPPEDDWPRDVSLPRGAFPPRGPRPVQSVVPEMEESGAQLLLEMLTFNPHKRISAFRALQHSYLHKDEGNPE
T1 sequence (P30281 whole entry partner): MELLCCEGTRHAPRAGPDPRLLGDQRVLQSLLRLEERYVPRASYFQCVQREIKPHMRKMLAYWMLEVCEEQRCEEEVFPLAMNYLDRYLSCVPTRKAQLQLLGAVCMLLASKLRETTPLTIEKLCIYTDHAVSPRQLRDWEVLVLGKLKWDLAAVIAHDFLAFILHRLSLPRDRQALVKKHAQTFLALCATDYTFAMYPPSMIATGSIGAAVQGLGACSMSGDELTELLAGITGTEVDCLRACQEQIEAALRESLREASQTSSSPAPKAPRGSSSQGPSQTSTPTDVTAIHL

Row | SMILES | IC50 (CDK4/cyclin D3; [1]) | IC50 (CDK2/cyclin A2; [2]) | IC50 (CDK4/cyclin D3; [3]) | IC50 (CDK2/cyclin A2; [4])
1 | CC(C)Nc1nc([C@@H](C)O)cc2cnc(Nc3ccc(N4CCN(C(C)(C)C)CC4)nn3)nc12 [Compound 604] | < 10 nM | ≥ 100 nM | – | –
2 | CC(C)Nc1nc([C@@H](C)O)cc2cnc(Nc3ccc(N4CCC(N)CC4=O)cn3)nc12 (stereo partly shown) [Compound 605] | < 10 nM | 10 to 100 nM | – | –
3 | CNC1CC2(C1)CN(c1ccc(Nc3ncc4cc([C@@H](C)O)nc(NC(C)C)c4n3)nn1)C2 [Compound 606] | < 10 nM | ≥ 100 nM | – | –
4 | CC(C)Nc1nc(C(C)O)cc2cnc(Nc3ccc(N4CCC(O)C(F)C4)nn3)nc12 (stereo not shown) [Compound 608] | < 10 nM | ≥ 100 nM | – | –
5 | CNC1CCN(c2ccc(Nc3ncc4cc(C(C)O)nc(NC(C)C)c4n3)nn2)CC1F (stereo not shown) [Compound 609] | < 10 nM | ≥ 100 nM | – | –
6 | CNC1CCN(c2ccc(Nc3ncc4cc(C(C)O)nc(NC(C)C)c4n3)nn2)CC1F (stereo not shown) [Compound 610] | < 10 nM | ≥ 100 nM | – | –
7 | CC(C)Nc1nc([C@@H](C)O)cc2cnc(Nc3ccc(N4CC5(CC(N(C)C)C5)C4)nn3)nc12 [Compound 611] | < 10 nM | ≥ 100 nM | – | –
8 | C[C@@H](O)c1cc2cnc(Nc3ccc(N4CCNCC4=O)cn3)nc2c(N[C@H]2CC[C@H](C)CC2)n1 [Compound 612] | < 10 nM | 10 to 100 nM | – | –
9 | CC(C)Nc1nc([C@@H](C)O)cc2cnc(Nc3ccc(SCCN(C)C)nn3)nc12 [Compound 614] | < 10 nM | ≥ 100 nM | – | –
10 | CC(C)Nc1nc([C@@H](C)O)cc2cnc(Nc3ccc(CC(=O)N4CCN(C(C)C)CC4)cn3)nc12 [Compound 615] | < 10 nM | ≥ 100 nM | – | –
11 | CC(C)Nc1nc(C(C)O)cc2cnc(Nc3ccc(N4CCC(N)C(F)C4)nn3)nc12 (stereo not shown) [Compound 618] | < 10 nM | ≥ 100 nM | – | –
12 | CC(C)Nc1nc(C(C)O)cc2cnc(Nc3ccc(N4CCC(N)C(F)C4)nn3)nc12 (stereo not shown) [Compound 619] | < 10 nM | ≥ 100 nM | – | –
13 | CC(C)Nc1nc(C(C)O)cc2cnc(Nc3ccc(N4CCC(N(C)C)C(F)C4)nn3)nc12 (stereo not shown) [Compound 621] | < 10 nM | ≥ 100 nM | – | –
14 | CC(C)Nc1nc(C(C)O)cc2cnc(Nc3ccc(N4CCC(N(C)C)C(F)C4)nn3)nc12 (stereo not shown) [Compound 622] | < 10 nM | ≥ 100 nM | – | –
15 | CC(C)Nc1nc([C@@H](C)O)cc2cnc(Nc3ccc(N4C(=O)CN5CCC4CC5)cn3)nc12 [Compound 623] | < 10 nM | 10 to 100 nM | – | –
16 | C[C@@H](O)c1cc2cnc(Nc3ccc(N4CCNCC4=O)cn3)nc2c(N[C@H]2CC[C@@H](C)CC2)n1 [Compound 624] | < 10 nM | ≥ 100 nM | – | –
17 | CC(C)Nc1nc([C@@H](C)O)cc2cnc(Nc3ccc(N4CCN(CC(C)(C)O)CC4)nn3)nc12 [Compound 625] | < 10 nM | ≥ 100 nM | – | –
18 | CC(C)Nc1nc([C@@H](C)O)cc2cnc(Nc3ccc(CN4CCN(CC(C)(C)O)CC4)cn3)nc12 [Compound 626] | < 10 nM | ≥ 100 nM | – | –
19 | CC(C)Nc1nc([C@@H](C)O)cc2cnc(Nc3ccc(N4CCN(CC(C)(C)O)CC4=O)cn3)nc12 [Compound 627] | – | – | < 10 nM | ≥ 100 nM
20 | COC1CCC(Nc2nc([C@@H](C)O)cc3cnc(Nc4ccc(OCCN(C)C)cn4)nc23)CC1 (stereo partly shown) [Compound 628] | – | – | < 10 nM | ≥ 100 nM
21 | C[C@@H](O)c1cc2cnc(Nc3ccc(OCCN(C)C)cn3)nc2c(N[C@H]2CCCOC2)n1 [Compound 629] | – | – | < 10 nM | ≥ 100 nM
22 | CC(C)Nc1nc([C@@H](C)O)cc2cnc(Nc3ccc(N4CCCC5(CCCN5)C4=O)cn3)nc12 (stereo partly shown) [Compound 630] | – | – | < 10 nM | ≥ 100 nM
23 | CC(C)Nc1nc([C@@H](C)O)cc2cnc(Nc3ccc(N4CCN(C(C)C)CCC4=O)cn3)nc12 [Compound 631] | – | – | < 10 nM | 10 to 100 nM
24 | CC(C)CN1CCC(=O)N(c2ccc(Nc3ncc4cc([C@@H](C)O)nc(NC(C)C)c4n3)nc2)CC1 [Compound 632] | – | – | < 10 nM | ≥ 100 nM
25 | CC(C)Nc1nc([C@@H](C)O)cc2cnc(Nc3ccc(CN4CCN(C(C)C)CC4)cn3)nc12 [Compound 633] | – | – | < 10 nM | ≥ 100 nM
26 | CNCCOc1ccc(Nc2ncc3cc([C@@H](C)O)nc(NC4CCC(C)(C)OC4)c3n2)nc1 (stereo partly shown) [Compound 634] | – | – | < 10 nM | ≥ 100 nM
27 | CNCCOc1ccc(Nc2ncc3cc([C@@H](C)O)nc(N[C@H]4CCCOC4)c3n2)nc1 [Compound 635] | – | – | < 10 nM | ≥ 100 nM
28 | CC(O)CN1CCN(c2ccc(Nc3ncc4cc([C@@H](C)O)nc(NC(C)C)c4n3)nc2)C(=O)C1 (stereo partly shown) [Compound 636] | – | – | < 10 nM | ≥ 100 nM
29 | CC(O)CN1CCN(c2ccc(Nc3ncc4cc([C@@H](C)O)nc(NC(C)C)c4n3)nn2)CC1 (stereo partly shown) [Compound 637] | – | – | < 10 nM | ≥ 100 nM
